Assay results published in US20010044404A1, “Cleaning process and composition” (3M Innovative Properties Company, priority 1995, published 2001).

Legend:
[1] = Perfluoropolyether oil removal in solvent vapor; conditions: Brayco 815Z; vapor over boiling liquid, 60 seconds
Method: The above-described aluminum coupon was dipped into Brayco 815Z perfluoropolyether oil (available from Castrol Inc., molecular weight of about 10,000) and then immersed in alkoxy-substituted perfluorocompound vapor (over the boiling liquid) for 60 seconds. The percent oil removal was determined in the above-described manner.

[2] = Pump oil removal with boiling mixed terpenes/perfluorocompound mixture; conditions: boiling mixture 40 volume % mixed terpenes, 60 volume % fluorinated component
Method: The above-described test coupon was dipped into DuoSeal Pump Oil (available from Sargent-Welch), was immersed in a boiling mixture of 40 volume % of a solvating agent comprising mixed terpenes having a boiling range of 243-274° C. and 60 volume % of alkoxy-substituted perfluorocompound (a cleaning composition of the invention), was cooled for 60 seconds, and was then immersed in mixture vapor for 30 seconds. The percent oil removal was determined in the above-described manner.

[3] = Flash point testing ASTM D3278-89; format: physicochemical
Method: The alkoxy-substituted perfluorocompounds C4F9OCH3, C4F9OC2H5, and c-C6F11OCH3 were tested for flash point by the standard method defined by ASTM D3278-89.

[4] = Rinse agent in co-solvent cleaning of solder flux; conditions: solvating agent 1 minute at about 55° C., then 30 seconds in boiling solvent
Method: The ability of alkoxy-substituted perfluorocompounds to function as a rinse agent in a co-solvent cleaning process was evaluated. The above-described aluminum coupon was coated with solder flux (available from Alpha Metals as Alpha 611 rosin, mildly activated flux) by immersing the coupon into a flux-filled beaker. The flux-coated coupon was then dried using a forced air convection drier. The initial amount of the flux on the coupon was determined by weighing it on an analytical balance to the nearest 0.1 mg. The coupon was immersed in a container of a mixed solvating agent comprising approximately 50% methyl decanoate and 50% dipropylene glycol di-n-butyl ether and was sonicated for 1 minute at approximately 55° C. The coupon was then immersed for 30 seconds into alkoxy-substituted perfluorocompound which had been heated to its boiling point. The coupon was weighed again, and the results were recorded in Table 5 below as percent oil removed from the coupon.

[5] = Stability in the presence of oxidant (potassium permanganate in acetone); format: physicochemical; conditions: refluxed four hours
Method: To assess oxidative stability, potassium permanganate (20 g, 0.126 mole) was dissolved in acetone, and C4F9OCH3 (500 g of 99.9% purity, 2.0 mole) was added to the resulting solution. The solution was refluxed for four hours, with no indication that the permanganate had been consumed (as evidenced by the absence of brown MnO2). The refluxed solution was then distilled into a 500 mL Barrett trap filled with water. The lower fluorochemical phase of the resulting mixture was separated from the upper phase, was washed with four 1.5 L aliquots of water, and was dried by passage through a column of silica gel to yield 471 g of resulting product.

[6] = Ability to dissolve halogenated oils (miscibility); format: physicochemical; conditions: room temperature
Method: The ability of alkoxy-substituted perfluorocompounds to dissolve several halogenated oils was determined by adding a measured amount of oil to alkoxy-substituted perfluorocompound until the resulting mixture became turbid or phase-split. […] The results (shown in Table 12) indicate that alkoxy-substituted perfluorocompounds have very high ability to dissolve halogenated oils. Thus, the perfluorocompounds can be used as carrier solvents for halogenated oils in the deposition of coatings of such oils on substrate surfaces.

[7] = Stability in the presence of base: aqueous NaOAc, fluoride ion measurement; format: physicochemical; conditions: 10 g with 10 g 0.1M NaOAc, 110° C., 16 hours
Method: To assess hydrolytic stability, a ten gram sample of alkoxy-substituted perfluorocompound was combined with 10 g of 0.1M NaOAc and sealed in a 2.54 cm (internal diameter) by 9.84 cm Monel™ 400 alloy (66% nickel, 31.5% copper, and 1.2% iron and several minor components) tube (available from Paar Instrument Co. of Moline, Ill. as Part Number 4713cm). The tube was heated at 110° C. in a forced air convection oven for 16 hours. After cooling to room temperature, a 1 mL sample of the tube contents was diluted with 1 mL of total ionic strength adjustment buffer (TISAB, available from Orion Research, Inc., a mixture of 1,2-cyclohexylene dinitrilotetraacetic acid, deionized water, sodium acetate, sodium chloride, and acetic acid). The concentration of fluoride ion (resulting from any reaction of the perfluorocompound with the aqueous NaOAc) was measured using an Orion Model 720A Coulombmeter with a F-specific electrode which had been previously calibrated using 0.5 and 500 ppm F^− solutions. Based on the measured fluoride ion concentration, the rate at which HF had been generated by reaction of the aqueous NaOAc with the perfluorocompound was calculated.

[8] = Pump oil removal in vapor of boiling n-C6H14/perfluorocompound mixture; conditions: vapor of boiling 40 volume % n-C6H14, 60 volume % fluorinated component; 60 seconds
Method: The above-described test coupon was dipped into DuoSeal Pump Oil (available from Sargent-Welch) and was then immersed in the vapor of a boiling mixture of 40 volume % n-C6H14 and 60 volume % alkoxy-substituted perfluorocompound (a cleaning composition of the invention), for 60 seconds. The percent oil removal was determined in the above-described manner.

[9] = Fluorinated oil removal from aluminum coupon; conditions: Krytox 157FSM, room temperature
Method: Using essentially the same procedure as that described in Examples 8-10, the ability of the alkoxy-substituted perfluorocompounds to remove a fluorinated oil was evaluated. As in the previous Examples, a coupon was immersed in Krytox™ 157FSM perfluoropolyether oil having carboxylic acid end groups (available from DuPont), and the percent oil remaining after immersion in the solvent (at room temperature) was determined.

[10] = Mineral oil removal with boiling methyl decanoate/perfluorocompound mixture; conditions: boiling mixture 40 volume % methyl decanoate, 60 volume % perfluorocompound
Method: The above-described test coupon was dipped in white heavy mineral oil (available from Aldrich Chemical), was immersed in a boiling single-phase mixture of 40 volume % of a solvating agent comprising essentially methyl decanoate and 60 volume % of alkoxy-substituted perfluorocompound (a cleaning composition of the invention) for 60 seconds, was cooled for 60 seconds, and was then immersed in mixture vapor for 30 seconds. The percent oil removal was determined in the above-described manner.

[11] = Solvency properties: largest normal hydrocarbon alkane soluble at 50 percent by volume
Method: A number of potential solvents were tested for their ability to dissolve hydrocarbons of increasing molecular weight according to the procedure described in U.S. Pat. No. 5,275,669 (Van Der Puy et al.), the description of which is incorporated herein by reference. The data shown in Table 1 were obtained by determining the largest normal hydrocarbon alkane which was soluble in a particular solvent at a level of 50 percent by volume. The numbers in the Table correspond with the carbon number of the largest alkane, e.g., “8” refers to octane. Measurements were made from room temperature up to the boiling point of the solvent. For comparative purposes, hydrofluorocarbons (HFCs) and perfluorocarbons (PFCs) were also tested using this method.
Using essentially the above-described method, the solvency properties of other alkoxy-substituted perfluorocompounds were tested at room temperature.

For `COC(F)(F)C(F)(F)C(F)(F)C(F)(F)F` [Example C4F9OCH3, perfluorobutyl methyl ether], the “Percent Soil Removed” value [1] was 89.9%, the “Percent Soil Removed” value [2] was 86.4% and the Flash point [3] was “no flash point”. For the same compound, the “% Removed” value [4] was 100.0%, the “Stability in the presence of oxidant” value [5] was “stable in the presence of the oxidant” and the Miscibility with solute ([6]; Brayco 815Z Perfluoropolyether (MW about 10,000)) was “Miscible (greater than or equal to 50 percent by volume solubility at room temperature)”. For the same compound, the Miscibility with solute ([6]; Chlorotrifluoroethylene Fluid (Inland 41 Vacuum Pump Oil)) was “Miscible (greater than or equal to 50 percent by volume solubility at room temperature)”, the Miscibility with solute ([6]; Fomblin AM-2001 Functionalized Perfluoropolyether) was “Miscible (greater than or equal to 50 percent by volume solubility at room temperature)” and the “HF Generation Rate” value [7] was 0.67 µg/g/h. For the same compound, the “Percent Soil Removed” value [8] was 90.8%, the “% Removed” value [9] was 99.1% and the “Percent Soil Removed” value [10] was 94.61%. The “Largest Carbon Number of Longest Hydrocarbon Alkane to Dissolve” value (from here on “Largest Carbon Number”) ([11]; 20 weight % ether, 80 % n-butyl bromide) was 21, the “Largest Carbon Number” value ([11]; 20 weight % ether, 80 % t-DCE) was 22 and the “Largest Carbon Number” value ([11]; 30 weight % ether, 70 % n-butyl bromide) was 21. For the same compound, the “Largest Carbon Number” value ([11]; 50 weight % ether, 50 % n-butyl bromide) was 15, the “Largest Carbon Number” value ([11]; 50 weight % ether, 50 % t-DCE) was 16 and the “Largest Carbon Number” value ([11]; 80 weight % ether, 20 % n-butyl bromide) was 11. The “Largest Carbon Number” value ([11]; 80 weight % ether, 20 % t-DCE) was 11, the “Largest Carbon Number” value ([11]; 100 weight % ether, 0 % n-butyl bromide) was 9 and the “Largest Carbon Number” value ([11]; 100 weight % ether, 0 % t-DCE) was 9.
